Data: ChEMBL document CHEMBL1201861, “Genomics of Drug Sensitity in Cancer screening data, Wellcome Trust Sanger Institute”
Where a SMILES comes first, the peptide text is derived from it. The star is where a group is joined. Cbz = O=C(OCc1ccccc1)*

Columns and labels:
Format in all cases: functional, cell-based
CP67-MEL = assay: SANGER: Inhibition of human CP67-MEL cell growth in a cell viability assay.
NCI-H128 = assay: SANGER: Inhibition of human NCI-H128 cell growth in a cell viability assay.
KP-N-RT-BM-1 = assay: SANGER: Inhibition of human KP-N-RT-BM-1 cell growth in a cell viability assay.
SKM-1 = assay: SANGER: Inhibition of human SKM-1 cell growth in a cell viability assay.
CRO-AP2 = assay: SANGER: Inhibition of human CRO-AP2 cell growth in a cell viability assay.
NCI-H2227 = assay: cells; details: Homo sapiens;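 further: growth inhibition of the human cell line, read out with a cell viability assay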
Description: SANGER: Inhibition of human NCI-H2227 cell growth in a cell viability assay.

TC-YIK = assay: SANGER: Inhibition of human TC-YIK cell growth in a cell viability assay.
LU-135 = assay: cells; details: Homo sapiens
Description: SANGER: Inhibition of human LU-135 cell growth in a cell viability assay.

D-566MG = assay: cells; details: Homo sapiens
NCI-H2029 = assay: cells; details: Homo sapiens;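 further: Read-out is a viability assay on the cultured cells, and IC50 is the concentration that suppresses cell growth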
Description: SANGER: Inhibition of human NCI-H2029 cell growth in a cell viability assay.

NCI-H1666 = assay: cells; details: Homo sapiens;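 further: growth inhibition of the cell line, read out with a cell viability assay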
Description: SANGER: Inhibition of human NCI-H1666 cell growth in a cell viability assay.

RH-18 = assay: cells; details: Homo sapiens, Rh18;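 further: growth inhibition of human RH-18 cells, read out with a cell viability assay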
Description: SANGER: Inhibition of human RH-18 cell growth in a cell viability assay.

SW900 = assay: cells; details: Homo sapiens;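 further: IC50 is the concentration that inhibits SW900 cell growth, measured by a cell viability assay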
Description: SANGER: Inhibition of human SW900 cell growth in a cell viability assay.

A549 = assay: cells; details: Homo sapiens;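 further: growth inhibition of A549 cells, read out with a cell viability assay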
Description: SANGER: Inhibition of human A549 cell growth in a cell viability assay.

BALL-1 = assay: cells; details: Homo sapiens;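 further: growth inhibition of BALL-1 cells, read out with a cell viability assay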
Description: SANGER: Inhibition of human BALL-1 cell growth in a cell viability assay.

TI-73 = assay: cells; details: Homo sapiens;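 further: cell viability assay measuring how much compounds suppress growth of the cultured cell line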
Description: SANGER: Inhibition of human TI-73 cell growth in a cell viability assay.

NCI-H2291 = assay: cells; details: Homo sapiens
Description: SANGER: Inhibition of human NCI-H2291 cell growth in a cell viability assay.

SW 1116 = assay: cells; details: Homo sapiens;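 further: growth inhibition of SW1116 cells, read out with a cell viability assay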
Description: SANGER: Inhibition of human SW1116 cell growth in a cell viability assay.

H9 = assay: cells; details: Homo sapiens
Description: SANGER: Inhibition of human H9 cell growth in a cell viability assay.

YH-13 = assay: cells; details: Homo sapiens;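 further: cell viability readout of growth suppression in the human YH-13 cell line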
Description: SANGER: Inhibition of human YH-13 cell growth in a cell viability assay.

EPLC-272H = assay: cells; details: Homo sapiens
Description: SANGER: Inhibition of human EPLC-272H cell growth in a cell viability assay.

CHP-134 = assay: SANGER: Inhibition of human CHP-134 cell growth in a cell viability assay.
NCI-H1048 = assay: cells; details: Homo sapiens;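 further: growth inhibition of human NCI-H1048 cells, read out with a cell viability assay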
Description: SANGER: Inhibition of human NCI-H1048 cell growth in a cell viability assay.

CFPAC-1 = assay: cells; details: Homo sapiens;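 further: cell viability readout used to gauge suppression of CFPAC-1 cell proliferation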
Description: SANGER: Inhibition of human CFPAC-1 cell growth in a cell viability assay.

Caov-3 cell line = assay: cells; details: Homo sapiens;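 further: cell growth inhibition read out by a viability assay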
Description: SANGER: Inhibition of human Caov-3 cell growth in a cell viability assay.

IPC-298 = assay: SANGER: Inhibition of human IPC-298 cell growth in a cell viability assay.
SNG-M = assay: cells; details: Homo sapiens
Description: SANGER: Inhibition of human SNG-M cell growth in a cell viability assay.

PLC-PRF-5 = assay: cells; details: Homo sapiens;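 further: growth inhibition of human PLC-PRF-5 cells, read out with a viability assay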
Description: SANGER: Inhibition of human PLC-PRF-5 cell growth in a cell viability assay.

RT-4 = assay: SANGER: Inhibition of human RT4 cell growth in a cell viability assay.
SK-CO-1 = assay: cells; details: Homo sapiens;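 further: growth inhibition of SK-CO-1 cells, determined by a viability readout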
Description: SANGER: Inhibition of human SK-CO-1 cell growth in a cell viability assay.

MDA-MB-468 = assay: cells; details: Homo sapiens
Description: SANGER: Inhibition of human MDA-MB-468 cell growth in a cell viability assay.

NCI-H838 = assay: cells; details: Homo sapiens;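 further: growth inhibition of human NCI-H838 cells, read out by a cell viability assay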
Description: SANGER: Inhibition of human NCI-H838 cell growth in a cell viability assay.

NCI-H1734 = assay: cells; details: Homo sapiens;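 further: growth inhibition of human NCI-H1734 cells, read out with a cell viability assay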
Description: SANGER: Inhibition of human NCI-H1734 cell growth in a cell viability assay.

HCC1143 = assay: cells; details: Homo sapiens;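 further: growth inhibition of human HCC1143 cells, read out with a cell viability assay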
Description: SANGER: Inhibition of human HCC1143 cell growth in a cell viability assay.

MFE-296 = assay: SANGER: Inhibition of human MFE-296 cell growth in a cell viability assay.
EFE-184 = assay: cells; details: Homo sapiens
Description: SANGER: Inhibition of human EFE-184 cell growth in a cell viability assay.

DV-90 = assay: cells; details: Homo sapiens;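 further: Read-out is a viability assay, with IC50 reflecting the drop in DV-90 cell growth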
Description: SANGER: Inhibition of human DV-90 cell growth in a cell viability assay.

NCI-H1975 = assay: cells; details: Homo sapiens
Description: SANGER: Inhibition of human NCI-H1975 cell growth in a cell viability assay.

Compound	IC50 (CP67-MEL)	IC50 (NCI-H128; Homo sapiens, NCI-H128)	IC50 (KP-N-RT-BM-1)	IC50 (SKM-1; Homo sapiens, SKM-1)	IC50 (NCI-H2227)	IC50 (LU-135)	IC50 (D-566MG)	IC50 (NCI-H2029)	IC50 (NCI-H1666)	IC50 (RH-18)	IC50 (SW900)	IC50 (A549)	IC50 (BALL-1)	IC50 (TI-73)	IC50 (NCI-H2291)	IC50 (SW 1116)	IC50 (YH-13)	IC50 (EPLC-272H)	IC50 (NCI-H1048)	IC50 (CFPAC-1)	further results
Cc1ccc(NC(=O)c2ccc(CN3CCN(C)CC3)cc2)cc1Nc1nccc(-c2cccnc2)n1 [IMATINIB]	> 2 µM	> 2 µM	> 2 µM	> 2 µM	–	–	–	–	–	–	–	–	–	–	–	–	–	–	–	–	IC50 (CRO-AP2): > 2 µM
Nc1ccccc1NC(=O)c1ccc(CNC(=O)OCc2cccnc2)cc1 [ENTINOSTAT]	–	> 5 µM	–	> 5 µM	3.02 µM	–	–	–	–	–	–	–	–	–	–	–	–	–	–	–	IC50 (CRO-AP2): 0.169 µM
COc1cc(N2CCC(N3CCN(C)CC3)CC2)ccc1Nc1ncc(Cl)c(Nc2ccccc2S(=O)(=O)C(C)C)n1 [TAE-684]	> 2 µM	> 2 µM	0.331 µM	> 2 µM	–	–	–	–	–	–	–	–	–	–	–	–	–	–	–	–	IC50 (TC-YIK): > 2 µM
CN(C)CCOc1ccc(-c2nc(-c3ccncc3)c(-c3ccc4c(c3)CC/C4=N\O)[nH]2)cc1 [SB590885]	–	–	–	–	–	> 5 µM	> 5 µM	> 5 µM	> 5 µM	> 5 µM	> 5 µM	> 5 µM	> 5 µM	> 5 µM	> 5 µM	> 5 µM	> 5 µM	> 5 µM	> 5 µM	> 5 µM	IC50 (H9): 0.401 µM; IC50 (CHP-134): > 5 µM
CCCCCCCCCCCC1=C(O)C(=O)C=C(O)C1=O [EMBELIN]	–	–	–	–	> 32 µM	–	–	–	–	–	–	–	–	–	–	–	–	–	–	–	IC50 (Caov-3 cell line): > 32 µM; IC50 (IPC-298): 13.4 µM; IC50 (SNG-M): 7.05 µM; IC50 (PLC-PRF-5): 6.93 µM; IC50 (RT-4): > 32 µM; IC50 (SK-CO-1): 13.6 µM; IC50 (MDA-MB-468): > 32 µM; IC50 (NCI-H838): > 32 µM; IC50 (NCI-H1734): 15 µM; IC50 (HCC1143): 7.14 µM; IC50 (MFE-296): 14.4 µM; IC50 (EFE-184): 26.1 µM; IC50 (DV-90): 29.9 µM
Cc1ccc(-n2nc(C(C)(C)C)cc2NC(=O)Nc2ccc(OCCN3CCOCC3)c3ccccc23)cc1 [DORAMAPIMOD]	–	–	–	–	–	> 10 µM	> 10 µM	> 10 µM	> 10 µM	> 10 µM	> 10 µM	> 10 µM	> 10 µM	> 10 µM	> 10 µM	> 10 µM	> 10 µM	> 10 µM	> 10 µM	> 10 µM	IC50 (H9): > 10 µM; IC50 (CHP-134): > 10 µM
CC(C)C[C@@H](C=O)NC(=O)[C@H](CC(C)C)NC(=O)[C@H](CC(C)C)NC(=O)OCc1ccccc1 [MG-132] (Cbz-Leu-Leu-Leu-aldehyde)	0.267 µM	–	> 1 µM	–	> 1 µM	–	–	–	–	–	–	–	–	–	–	–	–	–	–	–	IC50 (NCI-H128; nci-h128): > 1 µM; IC50 (SKM-1; skm-1): > 1 µM; IC50 (TC-YIK): > 1 µM
CC1=C(/C=C/C(C)=C/C=C/C(C)=C/C(=O)O)C(C)(C)CCC1 [TRETINOIN]	–	–	–	–	–	> 10 µM	> 10 µM	> 10 µM	> 10 µM	> 10 µM	> 10 µM	> 10 µM	> 10 µM	> 10 µM	> 10 µM	> 10 µM	> 10 µM	> 10 µM	> 10 µM	> 10 µM	IC50 (NCI-H1975): > 10 µM
COc1ccc(-c2cc3nccn3c(Nc3ncccc3C(N)=O)n2)cc1OC	–	–	–	–	> 8 µM	–	–	–	–	–	–	–	–	–	–	–	–	–	–	–	IC50 (Caov-3 cell line): > 8 µM; IC50 (IPC-298): > 8 µM; IC50 (SNG-M): 2.26 µM; IC50 (PLC-PRF-5): > 8 µM; IC50 (RT-4): 6.56 µM; IC50 (SK-CO-1): > 8 µM; IC50 (MDA-MB-468): > 8 µM; IC50 (NCI-H838): > 8 µM; IC50 (NCI-H1734): 4.86 µM; IC50 (HCC1143): > 8 µM; IC50 (MFE-296): > 8 µM; IC50 (EFE-184): > 8 µM; IC50 (DV-90): > 8 µM
